Measured values as given in paper PMC8632988, “Inhibition of SYK and cSrc kinases can protect bone and cartilage in preclinical models of osteoarthritis and rheumatoid arthritis” (Scientific Reports, 2021).
Where “and” joins values, the source holds several entries; their conditions need not be identical. Equal values may be shown once.

Test system: DBA/1 mice, CIA model
Assay: Collagen-induced arthritis model in mice
Type: in vivo, mouse
Details: BID
Experimental: Collagen-induced arthritis (CIA) model was performed at Bolder BioPATH, USA. Study design and animal usage was approved by Bolder BioPATH’s Institutional Animal Care and Use Committee. CIA was induced in 6–7 week old male DBA/1 mice with body weight of 15–26 g (Harlan, Inc) by intradermal injection of Freund’s Complete Adjuvant (Difco) containing bovine type II collagen (Bolder BioPATH) on day 0 and again on day 21 according to the standard protocol. […] After that mice were randomized into six groups: a control group of four, vehicle group and four treatment groups of ten mice each. […] Each paw was scored daily for inflammation. Therapeutic and prophylactic paws were considered. At study termination mice were euthanized by CO2 inhalation followed by cervical dislocation. Fore paws, hind paws, and knees were removed for microscopy.
Mice were weighed on arthritis days 1, 3, 5, 7, 9, and 11 (prior to necropsy). Daily clinical scores were given for each of the paws (right front, left front, right rear, left rear) on days 1–11 using the following criteria:
After 1–2 days in fixative and 4–5 days in 5% formic acid for decalcification, tissues were trimmed, processed for paraffin embedding, sectioned at 8 µm and stained with toluidine blue. Hind paws and knees were embedded and sectioned in the frontal plane. Two joints from each animal were processed for histopathology evaluation. The joints were then scored by two independent readers as indicated below. When scoring, severity of changes as well as number of individual joints affected were considered. When only 1–3 joints of the paws or ankles out of a possibility of numerous metacarpal/metatarsal/digit or tarsal/tibiotarsal joints were affected, an arbitrary assignment of a maximum score of 1, 2 or 3 for parameters below was given depending on severity of changes. If more than 3 joints were involved, the criteria below were applied to the most severely affected/majority of joints.

## COc1cc(Nc2ncnc(Nc3cc4c(cn3)NC(=O)C(C)(C)O4)n2)cc(OC)c1OC [MT-SYK-03]
103 mg/kg PO
  % inhibition to Vehicle, Paw Score Total AUC Sum (d1-11): 12%
103 mg/kg PO, group Mean
  Paw Score Total AUC Sum (d1-11): 28.48
103 mg/kg PO, individual animals
  Paw Score Total AUC Sum (d1-11): 27.25 and 32.38 and 26.00 and 35.88 and 12.50 and 29.00 and 37.38 and 33.00 and 33.88 and 17.50
Day 1, 103 mg/kg PO
  % inhibition to Vehicle, Average Paw Score: 0%
Day 1, 103 mg/kg PO, group Mean
  Average Paw Score Per Arthritis Day (All Paws): 0.80
Day 1, 103 mg/kg PO, individual animals, 103 mg/kg
  Average Paw Score Per Arthritis Day (All Paws): 0.50 and 1.50 and 1.00
Day 2, 103 mg/kg PO
  % inhibition to Vehicle, Average Paw Score: 18%
Day 2, 103 mg/kg PO, group Mean
  Average Paw Score Per Arthritis Day (All Paws): 1.50
Day 2, 103 mg/kg PO, individual animals, 103 mg/kg
  Average Paw Score Per Arthritis Day (All Paws): 1.25 and 2.00 and 1.00 and 2.50 and 1.50 and 0.50
Day 3, 103 mg/kg PO
  % inhibition to Vehicle, Average Paw Score: 15%
Day 3, 103 mg/kg PO, group Mean
  Average Paw Score Per Arthritis Day (All Paws): 2.25
Day 3, 103 mg/kg PO, individual animals, 103 mg/kg
  Average Paw Score Per Arthritis Day (All Paws): 2.25 and 3.00 and 1.25 and 3.25 and 2.00 and 2.75 and 2.50
Day 4, 103 mg/kg PO
  % inhibition to Vehicle, Average Paw Score: 13%
Day 4, 103 mg/kg PO, group Mean
  Average Paw Score Per Arthritis Day (All Paws): 2.75
Day 4, 103 mg/kg PO, individual animals, 103 mg/kg
  Average Paw Score Per Arthritis Day (All Paws): 2.75 and 3.25 and 2.00 and 3.50 and 1.25 and 3.00
Day 5, 103 mg/kg PO
  % inhibition to Vehicle, Average Paw Score: 12%
Day 5, 103 mg/kg PO, group Mean
  Average Paw Score Per Arthritis Day (All Paws): 3.08
Day 5, 103 mg/kg PO, individual animals, 103 mg/kg
  Average Paw Score Per Arthritis Day (All Paws): 3.00 and 3.50 and 2.75 and 3.75 and 1.25 and 4.00 and 2.00
Day 6, 103 mg/kg PO
  % inhibition to Vehicle, Average Paw Score: 11%
Day 6, 103 mg/kg PO, group Mean
  Average Paw Score Per Arthritis Day (All Paws): 3.18
Day 6, 103 mg/kg PO, individual animals, 103 mg/kg
  Average Paw Score Per Arthritis Day (All Paws): 3.00 and 3.50 and 3.75 and 1.25 and 4.00 and 2.25
Day 7, 103 mg/kg PO
  % inhibition to Vehicle, Average Paw Score: 10%
Day 7, 103 mg/kg PO, group Mean
  Average Paw Score Per Arthritis Day (All Paws): 3.28
Day 7, 103 mg/kg PO, individual animals, 103 mg/kg
  Average Paw Score Per Arthritis Day (All Paws): 3.00 and 3.50 and 3.25 and 4.00 and 1.25 and 4.25 and 3.75 and 2.25
Day 8, 103 mg/kg PO
  % inhibition to Vehicle, Average Paw Score: 12%
Day 8, 103 mg/kg PO, group Mean
  Average Paw Score Per Arthritis Day (All Paws): 3.33
Day 8, 103 mg/kg PO, individual animals, 103 mg/kg
  Average Paw Score Per Arthritis Day (All Paws): 3.25 and 3.50 and 4.00 and 1.25 and 4.50 and 3.75 and 4.25 and 2.00
Day 9, 103 mg/kg PO
  % inhibition to Vehicle, Average Paw Score: 13%
Day 9, 103 mg/kg PO, group Mean
  Average Paw Score Per Arthritis Day (All Paws): 3.43
Day 9, 103 mg/kg PO, individual animals, 103 mg/kg
  Average Paw Score Per Arthritis Day (All Paws): 3.25 and 3.75 and 3.50 and 4.25 and 1.50 and 4.50 and 2.00
Day 10, 103 mg/kg PO
  % inhibition to Vehicle, Average Paw Score: 13%
Day 10, 103 mg/kg PO, group Mean
  Average Paw Score Per Arthritis Day (All Paws): 3.53
Day 10, 103 mg/kg PO, individual animals, 103 mg/kg
  Average Paw Score Per Arthritis Day (All Paws): 3.50 and 3.75 and 4.25 and 1.50 and 4.75 and 4.00 and 2.00
Day 11, 103 mg/kg PO
  % inhibition to Vehicle, Average Paw Score: 12%
Day 11, 103 mg/kg PO, group Mean
  Average Paw Score Per Arthritis Day (All Paws): 3.55
Day 11, 103 mg/kg PO, individual animals, 103 mg/kg
  Average Paw Score Per Arthritis Day (All Paws): 3.50 and 3.75 and 4.00 and 4.25 and 1.50 and 4.75 and 2.00
MT-SYK-03 103 mg/kg PO
  % inhibition to Vehicle, Total AUC Sum (d1-11): 18%
MT-SYK-03 103 mg/kg PO, Day 1, group mean
  Summed Prophylactic (Non-Enrollment) Paw Score: 0.00
MT-SYK-03 103 mg/kg PO, Day 1, individual animals
  Summed Prophylactic (Non-Enrollment) Paw Score: 0
MT-SYK-03 103 mg/kg PO, Day 2
  % inhibition to Vehicle, Summed Prophylactic (Non-Enrollment) Paw Score: 15%
MT-SYK-03 103 mg/kg PO, Day 2, group mean
  Summed Prophylactic (Non-Enrollment) Paw Score: 2.20
MT-SYK-03 103 mg/kg PO, Day 2, individual animals, 103 mg/kg
  Summed Prophylactic (Non-Enrollment) Paw Score: 2 and 4 and 1 and 3 and 0
MT-SYK-03 103 mg/kg PO, Day 3
  % inhibition to Vehicle, Summed Prophylactic (Non-Enrollment) Paw Score: 23%
MT-SYK-03 103 mg/kg PO, Day 3, group mean
  Summed Prophylactic (Non-Enrollment) Paw Score: 3.60
MT-SYK-03 103 mg/kg PO, Day 3, individual animals, 103 mg/kg
  Summed Prophylactic (Non-Enrollment) Paw Score: 5 and 3 and 2 and 1 and 6 and 4
MT-SYK-03 103 mg/kg PO, Day 4
  % inhibition to Vehicle, Summed Prophylactic (Non-Enrollment) Paw Score: 19%
MT-SYK-03 103 mg/kg PO, Day 4, group mean
  Summed Prophylactic (Non-Enrollment) Paw Score: 5.20
MT-SYK-03 103 mg/kg PO, Day 4, individual animals, 103 mg/kg
  Summed Prophylactic (Non-Enrollment) Paw Score: 7 and 3 and 5 and 6 and 1 and 4
MT-SYK-03 103 mg/kg PO, Day 5
  % inhibition to Vehicle, Summed Prophylactic (Non-Enrollment) Paw Score: 16%
MT-SYK-03 103 mg/kg PO, Day 5, group mean
  Summed Prophylactic (Non-Enrollment) Paw Score: 6.10
MT-SYK-03 103 mg/kg PO, Day 5, individual animals, 103 mg/kg
  Summed Prophylactic (Non-Enrollment) Paw Score: 8 and 3 and 6 and 1 and 10 and 7 and 4
MT-SYK-03 103 mg/kg PO, Day 6
  % inhibition to Vehicle, Summed Prophylactic (Non-Enrollment) Paw Score: 16%
MT-SYK-03 103 mg/kg PO, Day 6, group mean
  Summed Prophylactic (Non-Enrollment) Paw Score: 6.40
MT-SYK-03 103 mg/kg PO, Day 6, individual animals, 103 mg/kg
  Summed Prophylactic (Non-Enrollment) Paw Score: 8 and 3 and 9 and 6 and 1 and 10 and 5
MT-SYK-03 103 mg/kg PO, Day 7
  % inhibition to Vehicle, Summed Prophylactic (Non-Enrollment) Paw Score: 17%
MT-SYK-03 103 mg/kg PO, Day 7, group mean
  Summed Prophylactic (Non-Enrollment) Paw Score: 6.50
MT-SYK-03 103 mg/kg PO, Day 7, individual animals, 103 mg/kg
  Summed Prophylactic (Non-Enrollment) Paw Score: 8 and 3 and 9 and 7 and 1 and 10 and 6 and 5
MT-SYK-03 103 mg/kg PO, Day 8
  % inhibition to Vehicle, Summed Prophylactic (Non-Enrollment) Paw Score: 20%
MT-SYK-03 103 mg/kg PO, Day 8, group mean
  Summed Prophylactic (Non-Enrollment) Paw Score: 6.50
MT-SYK-03 103 mg/kg PO, Day 8, individual animals, 103 mg/kg
  Summed Prophylactic (Non-Enrollment) Paw Score: 8 and 3 and 9 and 7 and 1 and 10 and 6 and 5
MT-SYK-03 103 mg/kg PO, Day 9
  % inhibition to Vehicle, Summed Prophylactic (Non-Enrollment) Paw Score: 20%
MT-SYK-03 103 mg/kg PO, Day 9, group mean
  Summed Prophylactic (Non-Enrollment) Paw Score: 6.80
MT-SYK-03 103 mg/kg PO, Day 9, individual animals, 103 mg/kg
  Summed Prophylactic (Non-Enrollment) Paw Score: 8 and 3 and 10 and 2 and 6 and 5
MT-SYK-03 103 mg/kg PO, Day 10
  % inhibition to Vehicle, Summed Prophylactic (Non-Enrollment) Paw Score: 18%
MT-SYK-03 103 mg/kg PO, Day 10, group mean
  Summed Prophylactic (Non-Enrollment) Paw Score: 7.20
MT-SYK-03 103 mg/kg PO, Day 10, individual animals, 103 mg/kg
  Summed Prophylactic (Non-Enrollment) Paw Score: 9 and 3 and 11 and 8 and 2 and 10 and 7 and 5
